Test results published in paper doi:10.1101/2025.11.04.686469, “Discovery of Host-Directed Small Molecules with Broad Anti-Leishmanial Efficacy” (bioRxiv, 2025).

Legend:
[1] = system: intracellular L. donovani amastigotes; assay: Luminescent-based evaluation of intracellular anti-leishmanial activity in THP-1 macrophages; assay type: cell-based, Leishmania donovani; conditions: intracellular Leishmania donovani in THP1 macrophages, luminescence assay (Supplemental Table 2); read-out: Lum IC50
Procedure: Luminescent strains, L. donovani LV82 expressing firefly luciferase (a kind gift from Dr. Abhay Satoskar, Ohio State University) and L. mexicana (NR-51210, ATCC) expressing renilla luciferase were used to evaluate the effect of the compounds in intracellular and extracellular conditions. Wild-type L. donovani LV82 (ATCC) were used for Giemsa staining based experiments. All parasites were cultured at 25°C and 5% CO2 in M199 media (Corning) supplemented with 10% FBS, 1% penicillin/streptomycin, and hemin (0.01 mg/mL), and used in experiments up to passage 15.
THP-1 cells were seeded in a 96 well plate (25,000 cells/well) overnight then differentiated with 150 nM phorbol 12-myristate 13-acetate (PMA) over 72 hours (Supplemental Figure 1). […] Briefly, promastigotes of a known cell density were resuspended in RPMI media (with 10% FBS, 1% P/S and 0.05 mM β-mercaptoethanol) and incubated with adhered THP-1 cells over 18 hours. After infection, cells were washed three times with fresh media to remove extracellular promastigotes.
Infected macrophages were then treated with compounds solubilized in DMSO ranging from 0.1-10 μM in concentrations. After 72 hours of treatment, the viability of the amastigotes within macrophages was determined using Promega firefly luminescence assay (Cat E1500) or Pierce Renilla luciferase assay (Cat 16166) for L. donovani and L. mexicana strains, respectively. Briefly, media was removed, and cells were lysed with the assay lysis buffer. The luciferase substrate was then incubated with the lysed cells for 10 min at room temperature and luminescence of live Leishmania was measured in a white opaque 96 well plate using a Biotek plate reader.

THP-1 macrophages = assay: Effect of compounds on host cell viability (MTT); assay type: cell-based; conditions: read-out: 24h LC50; THP1 macrophages, 24-hour incubation, MTT assay (Supplemental Table 2)
Procedure: The cells were cultured at 37C, 5% CO2 in RPMI medium (ATCC) supplemented with 10% FBS, 1% Penicillin/Streptomycin and 0.05 mM of β-mercaptoethanol. Cells were used in experiments up to passage 10.
Effect of the compounds on THP-1 cell viability measured using thiazolyl blue tetrazolium bromide which measures cell metabolic activity (MTT). THP-1 cells were seeded in a 96 well plate (25,000 cells/well) overnight then differentiated with 150 nM phorbol 12-myristate 13-acetate (PMA) over 72 hours. Macrophages were then treated with compounds resuspended in RPMI media (1- 50 μM) for 24 hours. Media was replaced with thiazolyl blue tetrazolium bromide solubilized in RPMI media (0.5 mg/mL) and incubated at 37°C for 2 hours. The reduced formazan crystals were solubilized with isopropyl alcohol and the absorbance of the resulting solution was measured at 560 nm with a background subtraction at 670 nm. […] This process was repeated with a 72-hr incubation and extended concentration range (1 - 300 μM) for select compounds.

CC(C)C#Cc1ccc(-c2cc(C(F)(F)F)nn2-c2ccc(N3CCC(NCc4cccc(F)c4)C3)cc2)cc1 (stereo not drawn) [Compound 100]
IC50 [1]: > 10 µM
CC50 (THP-1 macrophages): > 50 µM

Fc1cccc(CNC2CCN(c3ccc(-n4nc(C(F)(F)F)cc4C4CCCCC4)cc3)CC2)c1 [Compound 337]
IC50 [1]: 3.5 µM
CC50 (THP-1 macrophages): 32.1 µM

FC(F)(F)c1ccc(-c2ccc(-c3cc(C(F)(F)F)nn3-c3ccc(NC4CCN(Cc5ccc(Cl)c(C(F)(F)F)c5)C4)cc3)cc2)cc1 (stereo not drawn) [Compound 126]
IC50 [1]: > 10 µM
CC50 (THP-1 macrophages): > 50 µM

FC(F)(F)c1ccc(-c2nc(C(F)(F)F)cn2-c2ccc(NC3CCNC3)cc2)cc1 (stereo not drawn) [Compound 296]
IC50 [1]: 3 µM
CC50 (THP-1 macrophages): 12.9 µM

Oc1ccc(CN2CCC(Oc3ccc(-n4nc(C(F)(F)F)cc4C4CCCCC4)cc3)C2)cc1 (stereo not drawn) [Compound 377]
IC50 [1]: 8.3 µM
CC50 (THP-1 macrophages): 14.6 µM

FC(F)(F)c1cc(-c2cccnc2)n(-c2ccc(NC3CCNC3)cc2)n1 (stereo not drawn) [Compound 250]
IC50 [1]: > 10 µM
CC50 (THP-1 macrophages): > 50 µM

FC(F)(F)Oc1ccc(-n2nc(C(F)(F)F)cc2-c2ccc(-c3ccc(C(F)(F)F)cc3)cc2)cc1 [Compound 186]
IC50 [1]: > 10 µM
CC50 (THP-1 macrophages): > 50 µM

Nc1ccc(-n2cnc3ccccc32)cc1 [Compound 147]
IC50 [1]: > 10 µM
CC50 (THP-1 macrophages): > 50 µM

CCCCCCCCNc1ccc(-n2nc(C(F)(F)F)cc2-c2ccc(-c3ccc(C(F)(F)F)cc3)cc2)cc1 [Compound 64]
IC50 [1]: > 10 µM
CC50 (THP-1 macrophages): > 50 µM

NCCCCCOc1ccc(CN2CCC(Oc3ccc(-n4nc(C(F)(F)F)cc4C4CCCCC4)cc3)CC2)cc1 [Compound 432]
IC50 [1]: 2.9 µM
CC50 (THP-1 macrophages): 5.6 µM

CC(C)(C)OC(=O)NC1CCN(c2ccc(-n3nc(C(F)(F)F)cc3-c3ccc(-c4ccc(C(F)(F)F)cc4)cc3)cc2)CC1 [Compound 72]
IC50 [1]: > 10 µM
CC50 (THP-1 macrophages): > 50 µM

FC(F)(F)c1ccc(-c2ccc(-c3cc(C(F)(F)F)nn3-c3ccc(NC4CCN(Cc5ccccc5)C4)cc3)cc2)cc1 (stereo not drawn) [Compound 114]
IC50 [1]: > 10 µM
CC50 (THP-1 macrophages): 13.6 µM

NC(Cc1ccccc1)C(=O)N1CCC(Nc2ccc(-n3nc(C(F)(F)F)cc3-c3ccc(-c4ccc(C(F)(F)F)cc4)cc3)cc2)C1 (stereo not drawn) [Compound 61]
IC50 [1]: 2.3 µM
CC50 (THP-1 macrophages): 6.1 µM

FC(F)(F)c1ccc(-c2ccc(-c3cc(C(F)(F)F)nn3-c3ccc(OC4CCN(Cc5ccccc5)C4)cc3)cc2)cc1 (stereo not drawn) [Compound 145]
IC50 [1]: > 10 µM
CC50 (THP-1 macrophages): > 50 µM

c1cn(-c2ccc3nonc3c2)cn1 [Compound 207]
IC50 [1]: > 10 µM
CC50 (THP-1 macrophages): > 50 µM

FC(F)(F)c1ccc(-c2ccc(-c3cc(C(F)(F)F)nn3-c3ccc(N4CCC(NC5CCCCCC5)C4)cc3)cc2)cc1 (stereo not drawn) [Compound 69]
IC50 [1]: 5.5 µM
CC50 (THP-1 macrophages): 12.4 µM

FC(F)(F)c1cc(C2CCCCC2)n(-c2ccc(NC3CCNC3)cc2)n1 (stereo not drawn) [Compound 312]
IC50 [1]: 4.8 µM
CC50 (THP-1 macrophages): 25.5 µM

NC1CCN(c2ccc(-n3nncc3-c3ccc(-c4ccc(C(F)(F)F)cc4)cc3)cc2)C1 (stereo not drawn) [Compound 137]
IC50 [1]: 4.4 µM
CC50 (THP-1 macrophages): 7.3 µM

CC(C)C#Cc1ccc(-c2cc(C(F)(F)F)nn2-c2ccc([N+](=O)[O-])cc2)cc1 [Compound 94]
IC50 [1]: > 10 µM
CC50 (THP-1 macrophages): 29 µM

NC1CCN(c2ccc(-n3nc(C(F)(F)F)cc3-c3ccc(-c4ccc(C(F)(F)F)cc4)cc3)cc2)CC1 [Compound 73]
IC50 [1]: 2.7 µM
CC50 (THP-1 macrophages): 4.8 µM

C#CCCCC(=O)NC1CCN(c2ccc(-n3nc(C(F)(F)F)cc3-c3ccc(-c4ccc(C(F)(F)F)cc4)cc3)cc2)CC1 [Compound 92]
IC50 [1]: > 10 µM
CC50 (THP-1 macrophages): 14.7 µM

FC(F)(F)c1cc(-c2ccc(-c3ccc(S(F)(F)(F)(F)F)cc3)cc2)n(-c2ccc(Br)cc2)n1 [Compound 105]
IC50 [1]: > 10 µM
CC50 (THP-1 macrophages): > 50 µM

O=C(Nc1ccc(-n2cc(C(F)(F)F)nc2-c2ccc(-c3ccccc3)cc2)cc1)C1CCCN1Cc1ccccc1 (stereo not drawn) [Compound 85]
IC50 [1]: > 10 µM
CC50 (THP-1 macrophages): > 50 µM

CC(C)(C)OC(=O)N[C@@H]1CCN(c2ccc(-n3nc(C(F)(F)F)cc3-c3ccc(-c4ccc(C(F)(F)F)cc4)cc3)cc2)C1 [Compound 127]
IC50 [1]: > 10 µM
CC50 (THP-1 macrophages): > 50 µM

N#Cc1ccc(CN2CCC(Nc3ccc(-n4nc(C(F)(F)F)cc4C4CCCCC4)cc3)CC2)cc1 [Compound 323]
IC50 [1]: 8.9 µM
CC50 (THP-1 macrophages): 28.3 µM

Fc1cccc(CNC2CCN(c3ccc(-n4nc(C(F)(F)F)cc4-c4ccc(-c5ccc(S(F)(F)(F)(F)F)cc5)cc4)cc3)C2)c1 (stereo not drawn) [Compound 108]
IC50 [1]: > 10 µM
CC50 (THP-1 macrophages): > 50 µM

O=[N+]([O-])c1ccc(-n2cnc3ccc(Br)cc32)cc1 [Compound 138]
IC50 [1]: > 10 µM
CC50 (THP-1 macrophages): > 50 µM

NCCCOc1ccc(CN2CCC(Oc3ccc(-n4nc(C(F)(F)F)cc4C4CCCCC4)cc3)CC2)cc1 [Compound 429]
IC50 [1]: 2.4 µM
CC50 (THP-1 macrophages): 12.1 µM

Nc1ccc(-n2cc(C(F)(F)F)nc2-c2ccc(-c3ccc(C(F)(F)F)cc3)cc2)cc1 [Compound 76]
IC50 [1]: > 10 µM

O=[N+]([O-])c1ccc(-n2cc(C(F)(F)F)nc2-c2ccc(-c3ccccc3)cc2)cc1 [Compound 32]
CC50 (THP-1 macrophages): 6.3 µM

Oc1ccc(-n2nc(C(F)(F)F)cc2-c2ccc(-c3ccc(C(F)(F)F)cc3)cc2)cc1 [Compound 27]
CC50 (THP-1 macrophages): > 50 µM

FC(F)(F)c1ccc(-c2cnnn2-c2ccc(NC3CCNCC3)cc2)cc1 [Compound 434]
CC50 (THP-1 macrophages): 24.6 µM

C#Cc1ccc(-c2cc(C(F)(F)F)nn2-c2ccc(N3CCNCC3)cc2)cc1 [Compound 43]
CC50 (THP-1 macrophages): 0.5 µM

Fc1cccc(COC2CCN(c3ccc(-n4nc(C(F)(F)F)cc4C4CCCCC4)cc3)C2)c1 (stereo not drawn) [Compound 415]
CC50 (THP-1 macrophages): > 50 µM

Cc1ccccc1CNC1CN(c2ccc(-n3nc(C(F)(F)F)cc3-c3ccc(-c4ccc(C(F)(F)F)cc4)cc3)cc2)C1 [Compound 48]
CC50 (THP-1 macrophages): > 50 µM

N#Cc1ccc(-n2cc(C(F)(F)F)nc2-c2ccc(Br)cc2)c(F)c1 [Compound 291]
CC50 (THP-1 macrophages): > 50 µM

O=[N+]([O-])c1ccc(-n2nc(C(F)(F)F)cc2-c2ccc(C#CC3CC3)cc2)cc1 [Compound 39]
CC50 (THP-1 macrophages): > 50 µM

N#Cc1ccc(CN2CCC(Nc3ccc(-n4nc(C(F)(F)F)cc4C4CCCCC4)cc3)CC2)cc1 [Compound 389]
CC50 (THP-1 macrophages): > 50 µM

CC(C)(C)OC(=O)NC1CN(c2ccc(-n3nc(C(F)(F)F)cc3-c3ccc(-c4ccc(C(F)(F)F)cc4)cc3)cc2)C1 [Compound 22]
CC50 (THP-1 macrophages): > 50 µM

NC(=O)CN1c2ccccc2C2CCCC21 (stereo not drawn) [Compound 320]
CC50 (THP-1 macrophages): > 50 µM

FC(F)(F)c1ccc(-c2ccc(-c3cc(C(F)(F)F)nn3-c3ccc(NC4CCN(Cc5ccc(-c6ccccc6)cc5)C4)cc3)cc2)cc1 (stereo not drawn) [Compound 36]
CC50 (THP-1 macrophages): > 50 µM

CCOC(=O)CNc1ccc(-n2cc(C(F)(F)F)nc2-c2ccc(C(F)(F)F)cc2)cc1 [Compound 403]
CC50 (THP-1 macrophages): > 50 µM

FC(F)(F)c1ccc(-c2ccc(-c3cc(C(F)(F)F)nn3-c3ccc(NC4CN(C(c5ccccc5)c5ccccc5)C4)cc3)cc2)cc1 [Compound 4]
CC50 (THP-1 macrophages): > 50 µM

Fc1cccc(CNC2CCN(c3ccc(-n4nc(C(F)(F)F)cc4C4CCCCC4)cc3)C2)c1 (stereo not drawn) [Compound 285]
CC50 (THP-1 macrophages): > 50 µM

COc1ccc(-n2nc(C(F)(F)F)cc2C2CCCCC2)cc1 [Compound 363]
CC50 (THP-1 macrophages): > 50 µM

Fc1cccc([C@@H]2CCCN2)c1 [Compound 278]
CC50 (THP-1 macrophages): > 50 µM

FC(F)(F)c1cn(-c2ccc(NC3CCNC3)cc2)c(-c2ccncc2)n1 (stereo not drawn) [Compound 333]
CC50 (THP-1 macrophages): > 50 µM

FC(F)(F)c1c[nH]c(-c2ccc(Cl)cc2)n1 [Compound 35]
CC50 (THP-1 macrophages): > 50 µM

CC(C)(C)OC(=O)N1CCC(Oc2ccc(-n3nc(C(F)(F)F)cc3C3CCCCC3)cc2)CC1 [Compound 367]
CC50 (THP-1 macrophages): > 50 µM

FC(F)(F)c1cc(C(F)(F)F)n(-c2ccc(Br)cc2)n1 [Compound 276]
CC50 (THP-1 macrophages): 32.2 µM

FC(F)(F)c1ccc(-c2ccc(-c3cc(C(F)(F)F)nn3-c3ccc(N4CCC(NCc5ccccc5Cl)C4)cc3)cc2)cc1 (stereo not drawn) [Compound 12]
CC50 (THP-1 macrophages): > 50 µM

OCCn1nc(C(F)(F)F)cc1-c1ccc(C(F)(F)F)cc1 [Compound 293]
CC50 (THP-1 macrophages): > 50 µM

Oc1ccc(CN2CCC(Oc3ccc(-n4nc(C(F)(F)F)cc4C4CCCCC4)cc3)CC2)cc1 [Compound 374]
CC50 (THP-1 macrophages): 8.2 µM

Cc1cc(C(F)(F)F)n(-c2ccc(NC3CCN(C(=O)OC(C)(C)C)C3)cc2)n1 (stereo not drawn) [Compound 282]
CC50 (THP-1 macrophages): > 50 µM

FC(F)(F)c1cc(-c2ccc(Cl)c(Cl)c2)n(-c2ccc(NC3CCNC3)cc2)n1 (stereo not drawn) [Compound 261]
CC50 (THP-1 macrophages): 22.4 µM

Cc1cc(C(F)(F)F)n(-c2ccc(Br)cc2)n1 [Compound 274]
CC50 (THP-1 macrophages): > 50 µM
